In publication PMC6383948, “Evaluation of a class of isatinoids identified from a high-throughput screen of human kinase inhibitors as anti-Sleeping Sickness agents” (PLoS Neglected Tropical Diseases, 2019):
Marks after values point to notes of the source that are not given here.

Tests used:
T. b. brucei = T. b. brucei growth inhibition EC50 assay (resazurin, 72 h); type: cell-based, Trypanosoma brucei brucei Lister 427; details: 72 h, resazurin, error within ±0.20 (Table 2) or ±0.08 (Table 3) log units; for EC50: Trypanosoma brucei, read-out: T.b.b. pEC50 (converted)
Experimental: Mid-log phase growth T. b. brucei was diluted to a working cell density of 2,750 cells/mL and 90 μL/well dispensed into 96-well flat-bottom transparent assay plates (Nunc). Ten μL/well from intermediate plates were added. The final top concentration of compounds was 40 μM in 0.4% DMSO per well.
Assay plates were incubated for 72 h at 37°C and 5% CO2. Four hours prior to the end of the incubation, 20 μL of a 440 μM resazurin solution in prewarmed HMI-9 was added to each well and incubated for another 4 h. Fluorescence was then measured in an Infinite F200 plate reader (Tecan) at 550 nm (excitation filter) and 590 nm (emission filter). A 4-parameter equation was employed to fit the dose-response curves and determine of EC50 using the SigmaPlot 13.0 software. Assays were performed in duplicate at least twice, to achieve a minimal n = 3 per dose response.
Bloodstream Trypanosoma brucei brucei Lister 427 was cultured in Hirumi’s modified Iscove’s medium (HMI-9), supplemented with 10% heat-inactivated FBS, at 37 °C and 5% CO2 in T-25 vented flask (Corning®).
For dose-response experiments, compound plates were prepared for each analogue by serial 3-fold dilutions in 100% DMSO. Five concentration points (mammalian cytotoxicity) or ten concentration points (parasite growth inhibition), were made in 96-well transparent Nunclon plates. Pentamidine is routinely included in compound plates as internal quality control, and plates are stored sealed at -20 °C for no more than four weeks.

MRC5-SV2 cell line = assay: Cytotoxicity assay in MRC5 (resazurin, 48 h); type: cell-based, human; details: MRC5 toxicity
Experimental: For dose-response experiments, compound plates were prepared for each analogue by serial 3-fold dilutions in 100% DMSO. Five concentration points (mammalian cytotoxicity) or ten concentration points (parasite growth inhibition), were made in 96-well transparent Nunclon plates. Pentamidine is routinely included in compound plates as internal quality control, and plates are stored sealed at -20 °C for no more than four weeks. Intermediate plates were made as described, adding 95 μL of DMEM complete media to 5 μL of compound per well setting a 5% DMSO amount. Log-phase MRC5 cells were removed from a T-75 TC flask using TrypLE® Express (Thermo®) and dispersed by gentle pipetting. Cell density was adjusted to working concentration in prewarmed DMEM medium: 25,000 cells in 90 μL of culture were plated in 96-well transparent Nunclon plates and let to settle for 24 h at 37 °C and 5% CO2. After settling incubation, 10 μL of fresh made intermediate plate were added per well: final maximal concentration for compounds was 50 μM in 0.5% DMSO per well. […] Fluorescence was read in an Infinite F200 plate reader (Tecan®) at 550 nm (excitation filter) and 590 nm (emission filter). A 4-parameter equation was used to fit the dose-response curves and determination of EC50 by SigmaPlot ® 13.0 software. Assays were performed in duplicate at least twice for positive compounds, to achieve a minimal n=3 per dose response.

Compound | T.b.b. pEC50 (T. b. brucei) | MRC5 pTC50 (MRC5-SV2 cell line) | EC50 (T. b. brucei) [µM]
NS(=O)(=O)c1ccc(N/N=C2\C(=O)Nc3ccc(Cl)cc32)cc1 [NEU-2319] | 6.0 | <5.0^b | –
CC(C)c1cc2c(c(Cl)c1O)/C(=N/Nc1ccc(S(N)(=O)=O)cc1)C(=O)N2 [NEU-5455] | 6.4 | <5.0^b | –
Cc1ccc2c3c(ccc2n1)NC(=O)/C3=N\Nc1ccc(S(N)(=O)=O)cc1 [NEU-5456] | – | <5.0^b | 0.0398
NS(=O)(=O)c1ccc(NN=C2C(=O)Nc3cc4c(cc32)NCC4)cc1 [NEU-5459] | – | <5.0^b | 0.794
NC(=O)c1cccc2c1/C(=N/Nc1ccc(S(N)(=O)=O)cc1)C(=O)N2 [NEU-5460] | 6.2 | <5.0^b | –
Cc1c(Cl)ccc2c1/C(=N/Nc1ccc(S(N)(=O)=O)cc1)C(=O)N2 [NEU-5464] | 7.3 | <5.0^b | –
Cc1cc2c(c(C)c1O)/C(=N/Nc1ccc(S(N)(=O)=O)cc1)C(=O)N2 [NEU-5469] | 8.2 | <5.0^b | –
CCc1ccc2c(c1)NC(=O)/C2=N\Nc1ccc(S(N)(=O)=O)cc1 [NEU-5470] | 6.1 | <5.0^b | –
Cc1ccc2c(c1C)/C(=N/Nc1ccc(S(N)(=O)=O)cc1)C(=O)N2 [NEU-5479] | 6.9 | <5.0^b | –
Cc1cc2c(c(Cl)c1O)/C(=N/Nc1ccc(S(N)(=O)=O)cc1)C(=O)N2 [NEU-5485] | 7.1 | <5.0^b | –
CC(C)Cc1cccc2c1/C(=N/Nc1ccc(S(N)(=O)=O)cc1)C(=O)N2 [NEU-5487] | 7.4 | <5.0^b | –
CCc1cccc2c1/C(=N/Nc1ccc(S(N)(=O)=O)cc1)C(=O)N2 [NEU-5489] | 7.5 | <5.0^b | –
CC(C)c1cccc2c1/C(=N/Nc1ccc(S(N)(=O)=O)cc1)C(=O)N2 [NEU-5491] | 7.6 | <5.0^b | –
NS(=O)(=O)c1ccc(N/N=C2\C(=O)Nc3cccc(CC4CCC4)c32)cc1 [NEU-5492] | 6.9 | <5.0^b | –
NS(=O)(=O)c1ccc(N/N=C2\C(=O)Nc3cccc(CCc4ccc(O)cc4)c32)cc1 [NEU-5493] | 6.0 | – | –
